Laboratory results as given in US6340689B1 (priority 1999, dated 2002).

Legend:
[1] = test system: Erythromycin-resistant L. pneumophila; format: cell-based, Legionella pneumophila
[2] = test system: Erythromycin-resistant Legionella spp. other than L. pneumophila; format: cell-based

Structure (SMILES)	Mean PAE [1] [h]	Mean PAE [2] [h]	PAE (mean PAE) [1] [h]	PAE [1] [h]
CC[C@H]1OC(=O)[C@H](C)[C@@H](O[C@H]2C[C@@](C)(OC)[C@@H](O)[C@H](C)O2)[C@H](C)[C@@H](O[C@@H]2O[C@H](C)C[C@H](N(C)C)[C@H]2O)[C@](C)(O)C[C@@H](C)C(=O)[C@H](C)[C@@H](O)[C@]1(C)O [Erythromycin]	0.90 ± 1	0.44 ± 1	–	–
O=C(O)c1cn(C2CC2)c2cc(N3CCNCC3)c(F)cc2c1=O [Ciprofloxacin]	2.86 ± 2	2.13 ± 3	–	–
Cc1c(F)c(N2CCNC(C)C2)cc2c1c(=O)c(C(=O)O)cn2C1CC1 (centres unmarked) [Grepafloxacin]	4.18 ± 3	3.67 ± 1	4.18	–
N[C@@H]1[C@H]2CN(c3nc4c(cc3F)c(=O)c(C(=O)O)cn4-c3ccc(F)cc3F)C[C@@H]12 [Trovafloxacin]	2.83 ± 2	2.25 ± 2	2.83	–
CC[C@H]1OC(=O)[C@H](C)[C@@H](O[C@H]2C[C@@](C)(OC)[C@@H](O)[C@H](C)O2)[C@H](C)[C@@H](O[C@@H]2O[C@H](C)C[C@H](N(C)C)[C@H]2O)[C@](C)(O)C[C@@H](C)CN(C)[C@H](C)[C@@H](O)[C@]1(C)O [Azithromycin]	2.16 ± 1	2.13 ± 1	–	–
C[C@H]1COc2c(N3CCN(C)CC3)c(F)cc3c(=O)c(C(=O)O)cn1c23 [Levofloxacin]	2.59 ± 2	3.24 ± 1	–	2.59
CC1COc2c(N3CCN(C)CC3)c(F)cc3c(=O)c(C(=O)O)cn1c23 (centres unmarked) [Ofloxacin]	2.99 ± 1	4.13 ± 2	–	–
CO[C@H]1/C=C/O[C@@]2(C)Oc3c(C)c(O)c4c(O)c(c(/C=N/N5CCN(C)CC5)c(O)c4c3C2=O)NC(=O)/C(C)=C\C=C\[C@H](C)[C@H](O)[C@@H](C)[C@@H](O)[C@@H](C)[C@H](OC(C)=O)[C@@H]1C [Rifampicin]	0.93 ± 4	5.6 ± 3	–	0.9
CO/N=C1\CN(c2nc3c(cc2F)c(=O)c(C(=O)O)cn3C2CC2)CC1CN (racemic) [Gemifloxacin, (R,S)-7-(3-aminomethyl-4-methoxyiminopyrrolidin-1-yl)-1-cyclopropyl-6-fluoro-4-oxo-1,4-dihydro-1,8-naphthyridine-3-carboxylic acid]	4.65 ± 3	3.34 ± 2	4.65	–
CC[C@H]1OC(=O)[C@H](C)[C@@H](O[C@H]2C[C@@](C)(OC)[C@@H](O)[C@H](C)O2)[C@H](C)[C@@H](O[C@@H]2O[C@H](C)C[C@H](N(C)C)[C@H]2O)[C@](C)(OC)C[C@@H](C)C(=O)[C@H](C)[C@@H](O)[C@]1(C)O [Clarithromycin]	1.90 ± 1	1.60 ± 2	–	1.9
COc1c(N2C[C@@H]3CCCN[C@@H]3C2)c(F)cc2c(=O)c(C(=O)O)cn(C3CC3)c12 [Moxifloxacin]	3.38 ± 2	2.02 ± 1	3.38	–
